In patent US10582709B2, “Butyrolactones as herbicides” (FMC Corporation, priority 2015, dated 2020):

Assays:
Assay type in all cases: in vivo
[1] = system: barnyardgrass (Echinochloa crus-galli); assay: Test A preemergence, barnyardgrass; conditions: 1000 g ai/ha, visual rating after approx. 10 d, 0 to 100 scale, 0 no effect, 100 complete control
Method in brief: (§1)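 Herbicidal effect scored by eye on 0–100 (complete control = 100) about 10 d after spraying in a greenhouse. Formulation was a non-phytotoxic solvent blend with surfactant, applied to soil at seeding or to seedlings at the one- to two-leaf stage.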

[2] = system: crabgrass (large crabgrass, Digitaria sanguinalis); assay: Test A preemergence, crabgrass; conditions: 1000 g ai/ha, visual rating after approx. 10 d, 0 to 100 scale, 0 no effect, 100 complete control
Description: (§2) Seeds of plant species selected from barnyardgrass (Echinochloa crus-galli), crabgrass (large crabgrass, Digitaria sanguinalis), kochia (Kochia scoparia), ragweed (common ragweed, Ambrosia elatior), morningglory (Ipomoea spp.), velvetleaf (Abutilon theophrasti), ryegrass, Italian (Italian ryegrass, Lolium multiflorum), foxtail, giant (giant foxtail, Setaria faberii), wheat (Triticum aestivum), corn (Zea mays), and pigweed (Amaranthus retroflexus), were planted into a blend of loam soil and sand and treated preemergence with a directed soil spray using test chemicals formulated in a non-phytotoxic solvent mixture which included a surfactant. At the same time, plants selected from these crop and weed species and also blackgrass (Alopecurus myosuroides), and galium (catchweed bedstraw, Galium aparine), were planted in pots containing the same blend of loam soil and sand and treated with postemergence applications of test chemicals formulated in the same manner. Plants ranged in height from 2 to 10 cm and were in the one- to two-leaf stage for the postemergence treatment. Treated plants and untreated controls were maintained in a greenhouse for approximately 10 d, after which time all treated plants were compared to untreated controls and visually evaluated for injury. Plant response ratings, summarized in Table A, are based on a 0 to 100 scale where 0 is no effect and 100 is complete control. A dash (-) response means no test result.

[3] = system: morningglory (Ipomoea spp.); assay: Test A preemergence, morningglory; conditions: 1000 g ai/ha, visual rating after approx. 10 d, 0 to 100 scale, 0 no effect, 100 complete control
Description: as §2

[4] = system: velvetleaf (Abutilon theophrasti); assay: Test A preemergence, velvetleaf; conditions: 1000 g ai/ha, visual rating after approx. 10 d, 0 to 100 scale, 0 no effect, 100 complete control
Description: as §2

[5] = system: foxtail, giant (giant foxtail, Setaria faberii); assay: Test A preemergence, giant foxtail; conditions: 1000 g ai/ha, visual rating after approx. 10 d, 0 to 100 scale, 0 no effect, 100 complete control
Method in brief: as §1

[6] = system: wheat (Triticum aestivum); assay: Test A preemergence, wheat; conditions: 1000 g ai/ha, visual rating after approx. 10 d, 0 to 100 scale, 0 no effect, 100 complete control
Description: as §2

corn (Zea mays) [7] = assay: Test A preemergence, corn; conditions: 1000 g ai/ha, visual rating after approx. 10 d, 0 to 100 scale, 0 no effect, 100 complete control
Description: as §2

[8] = system: pigweed (Amaranthus retroflexus); assay: Test A preemergence, pigweed; conditions: 1000 g ai/ha, visual rating after approx. 10 d, 0 to 100 scale, 0 no effect, 100 complete control
Method in brief: as §1

[9] = system: barnyardgrass (Echinochloa crus-galli); assay: Test A postemergence, barnyardgrass; conditions: 1000 g ai/ha, visual rating after approx. 10 d, 0 to 100 scale, 0 no effect, 100 complete control
Method in brief: as §1

[10] = system: crabgrass (large crabgrass, Digitaria sanguinalis); assay: Test A postemergence, crabgrass; conditions: 1000 g ai/ha, visual rating after approx. 10 d, 0 to 100 scale, 0 no effect, 100 complete control
Description: as §2

[11] = system: morningglory (Ipomoea spp.); assay: Test A postemergence, morningglory; conditions: 1000 g ai/ha, visual rating after approx. 10 d, 0 to 100 scale, 0 no effect, 100 complete control
Description: as §2

[12] = system: velvetleaf (Abutilon theophrasti); assay: Test A postemergence, velvetleaf; conditions: 1000 g ai/ha, visual rating after approx. 10 d, 0 to 100 scale, 0 no effect, 100 complete control
Description: as §2

[13] = system: foxtail, giant (giant foxtail, Setaria faberii); assay: Test A postemergence, giant foxtail; conditions: 1000 g ai/ha, visual rating after approx. 10 d, 0 to 100 scale, 0 no effect, 100 complete control
Method in brief: as §1

[14] = system: wheat (Triticum aestivum); assay: Test A postemergence, wheat; conditions: 1000 g ai/ha, visual rating after approx. 10 d, 0 to 100 scale, 0 no effect, 100 complete control
Method in brief: as §1

corn (Zea mays) [15] = assay: Test A postemergence, corn; conditions: 1000 g ai/ha, visual rating after approx. 10 d, 0 to 100 scale, 0 no effect, 100 complete control
Method in brief: as §1

[16] = system: pigweed (Amaranthus retroflexus); assay: Test A postemergence, pigweed; conditions: 1000 g ai/ha, visual rating after approx. 10 d, 0 to 100 scale, 0 no effect, 100 complete control
Method in brief: as §1

[17] = system: barnyardgrass (Echinochloa crus-galli); assay: Test B flooded paddy test, barnyardgrass; conditions: 250 g ai/ha; applied to paddy water at 2-leaf stage; 13 to 15 d; scale 0 no effect to 100 complete control
Method in brief: (§3)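 Ratings use a 0-100 visual scale, where 100 is complete control, and compare treated plants with controls after 13 to 15 d of greenhouse growth. Compound went straight into paddy water kept 3 cm over the soil surface, applied to seedlings at the 2-leaf stage.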

[18] = system: ducksalad (Heteranthera limosa); assay: Test B flooded paddy test, ducksalad; conditions: 250 g ai/ha; applied to paddy water at 2-leaf stage; 13 to 15 d; scale 0 no effect to 100 complete control
Method in brief: as §3

rice (Oryza sativa) = assay: Test B flooded paddy test, rice; conditions: 250 g ai/ha; applied to paddy water at 2-leaf stage; 13 to 15 d; scale 0 no effect to 100 complete control
Method in brief: as §3

[19] = system: sedge, umbrella (small-flower umbrella sedge, Cyperus difformis); assay: Test B flooded paddy test, umbrella sedge; conditions: 250 g ai/ha; applied to paddy water at 2-leaf stage; 13 to 15 d; scale 0 no effect to 100 complete control
Method in brief: as §3

| Structure (SMILES) | Plant response rating, Barnyardgrass [1] | Plant response rating, Crabgrass [2] | Plant response rating, Morningglory [3] | Plant response rating, Velvetleaf [4] | Plant response rating, Foxtail, Giant [5] | Plant response rating, Wheat [6] | Plant response rating, Corn (corn (Zea mays) [7]) | Plant response rating, Pigweed [8] | Plant response rating, Barnyardgrass [9] | Plant response rating, Crabgrass [10] | Plant response rating, Morningglory [11] | Plant response rating, Velvetleaf [12] | Plant response rating, Foxtail, Giant [13] | Plant response rating, Wheat [14] | Plant response rating, Corn (corn (Zea mays) [15]) | Plant response rating, Pigweed [16] | Plant response rating, Flood, Barnyardgrass [17] | Plant response rating, Flood, Ducksalad [18] | Plant response rating, Flood, Rice (rice (Oryza sativa)) | Plant response rating, Flood, Sedge, Umbrella [19] |
| --- | --- | --- | --- | --- | --- | --- | --- | --- | --- | --- | --- | --- | --- | --- | --- | --- | --- | --- | --- | --- |
| O=C(Nc1ccccc1Cl)C1C(=O)OCC1c1ccc(F)cc1 (racemic) [Compound 1] | 0 | 70 | 0 | 0 | 40 | 0 | 0 | 0 | 20 | 60 | 0 | 0 | 40 | 0 | 0 | 20 |  |  |  |  |
| O=C(Nc1ccccc1F)C1C(=O)OCC1c1ccc(F)cc1 (racemic) [Compound 2] | 30 | 80 | 0 | 0 | 50 | 0 | 0 | 0 | 0 | 40 | 0 | 0 | 0 | 0 | 0 | 0 |  |  |  |  |
| O=C(Nc1ccccc1F)C1C(=O)OCC1c1ccc(F)c(F)c1 (racemic) [Compound 4] | 70 | 90 | 0 | 0 | 80 | 0 | 0 | 0 | 70 | 90 | 0 | 0 | 70 | 0 |  | 0 | 20 | 0 | 15 | 0 |
